Experimental data from ChEMBL document CHEMBL1201862, “PubChem BioAssay data set” (2004).
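1) Cells in 96-well plates. 2) Compound, 48 h, 5 concentrations. 3) Linear interpolation between surrounding doses. 4) Unreached endpoint = highest concentration. GI50 is the concentration that inhibits growth by half.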 The source made the active and inactive calls. No stated cut-off is given here; in the data, active = GI50 up to about 1.1 µM and inactive = higher.

Assays:
Assay in all cases: growth of human tumour cells (NCI), 48 h
[1] = system: NCI-H522
[2] = system: LXFL 529
[3] = system: U-251
[4] = system: SF-268
[5] = system: HL-60
[6] = system: DLD-1
[7] = system: SK-MEL-2
[8] = system: KM12
[9] = system: ACHN
[10] = system: RXF 393
[11] = system: SR
[12] = system: SK-OV-3
[13] = system: TK-10
[14] = system: M19-MEL
[15] = system: SN12C
[16] = system: OVCAR-4
[17] = system: SK-MEL-28
[18] = system: UO-31
[19] = system: CCRF-CEM
[20] = system: Malme-3M
[21] = system: K562
[22] = system: SNB-75
[23] = system: UACC-257
[24] = system: A498
[25] = system: SNB-78
[26] = system: KM-20L2
[27] = system: LOX IMVI
[28] = system: SNB-19
[29] = system: M14
[30] = system: HCC 2998
[31] = system: HT-29
[32] = system: HOP-62
[33] = system: XF498
[34] = system: NCI-H23
[35] = system: OVCAR-3
[36] = system: NCI-H460
[37] = system: UACC-62
[38] = system: MOLT-4
[39] = system: OVCAR-5
[40] = system: HCT-116
[41] = system: SF-539
[42] = system: EKVX
[43] = system: Hs-578T
[44] = system: HOP-92
[45] = system: HCT-15
[46] = system: IGROV-1
[47] = system: DMS-114
[48] = system: COLO 205
[49] = system: PC-3
[50] = system: NCI/ADR-RES
[51] = system: RPMI-8226
[52] = system: DU-145
[53] = system: MCF7
[54] = system: MDA-MB-231
[55] = system: SK-MEL-5
[56] = system: SF-295
[57] = system: NCI-H226
[58] = system: SW-620
[59] = system: A549
[60] = system: 786-0
[61] = system: MDA-N
[62] = system: MDA-MB-435
[63] = system: OVCAR-8
[64] = system: T47D

## O=S(O)CCCCCSSSCCCCCS(=O)O
[1]
  GI50: 24 µM (inactive)
[2]
  GI50: 11.4 µM (inactive)
[3]
  GI50: 54.5 µM (inactive)
[4]
  GI50: 26.9 µM (inactive)
[5]
  GI50: 24.7 µM (inactive)
[6]
  GI50: 35.4 µM (inactive)
[7]
  GI50: 25.9 µM (inactive)
[8]
  GI50: > 100 µM (inactive)
[9]
  GI50: > 100 µM (inactive)
[10]
  GI50: 14.4 µM (inactive)
[11]
  GI50: 3.48 µM (inactive)
[12]
  GI50: > 100 µM (inactive)
[13]
  GI50: 29 µM (inactive)
[14]
  GI50: 22.1 µM (inactive)
[15]
  GI50: 53.5 µM (inactive)
[16]
  GI50: 52 µM (inactive)
[17]
  GI50: 39.8 µM (inactive)
[18]
  GI50: 35.3 µM (inactive)
[19]
  GI50: 6.59 µM (inactive)
[20]
  GI50: 6.5 µM (inactive)
[21]
  GI50: 14.6 µM (inactive)
[22]
  GI50: 24.6 µM (inactive)
[23]
  GI50: 24.5 µM (inactive)
[24]
  GI50: > 100 µM (inactive)
[25]
  GI50: 45.6 µM (inactive)
[26]
  GI50: > 100 µM (inactive)
[27]
  GI50: 27.1 µM (inactive)
[28]
  GI50: > 100 µM (inactive)
[29]
  GI50: 43.7 µM (inactive)
[30]
  GI50: > 100 µM (inactive)
[31]
  GI50: > 100 µM (inactive)
[32]
  GI50: > 100 µM (inactive)
[33]
  GI50: 5.32 µM (inactive)
[34]
  GI50: 29.8 µM (inactive)
[35]
  GI50: 20.2 µM (inactive)
[36]
  GI50: > 100 µM (inactive)
[37]
  GI50: 22.8 µM (inactive)
[38]
  GI50: 4.81 µM (inactive)
[39]
  GI50: 85.5 µM (inactive)
[40]
  GI50: 15.5 µM (inactive)
[41]
  GI50: 84.3 µM (inactive)
[42]
  GI50: > 100 µM (inactive)

## C=C(C)C(O)CCC1(C)C=Cc2c(c(C)cc3c2[nH]c2ccccc23)O1 (centres undefined)
[1]
  GI50: 4.91 µM (inactive)
[43]
  GI50: 3.17 µM (inactive)
[2]
  GI50: 8.05 µM (inactive)
[3]
  GI50: 5.01 µM (inactive)
[4]
  GI50: 9.93 µM (inactive)
[5]
  GI50: 6.68 µM (inactive)
[6]
  GI50: 7.28 µM (inactive)
[8]
  GI50: 5.85 µM (inactive)
[44]
  GI50: 7.01 µM (inactive)
[45]
  GI50: 4.26 µM
[9]
  GI50: 4.86 µM (inactive)
[46]
  GI50: 17.1 µM (inactive)
[10]
  GI50: 0.245 µM (active)
[47]
  GI50: 11.6 µM (inactive)
[11]
  GI50: 8.47 µM (inactive)
[12]
  GI50: 23.3 µM (inactive)
[13]
  GI50: > 25 µM (inactive)
[48]
  GI50: 4.65 µM (inactive)
[14]
  GI50: 13.2 µM (inactive)
[15]
  GI50: 12.8 µM (inactive)
[49]
  GI50: 6.55 µM (inactive)
[16]
  GI50: 16.5 µM (inactive)
[50]
  GI50: 8.81 µM (inactive)
[17]
  GI50: 16.7 µM (inactive)
[51]
  GI50: 9.77 µM (inactive)
[18]
  GI50: 6.87 µM (inactive)
[19]
  GI50: 7.74 µM (inactive)
[20]
  GI50: 11.3 µM (inactive)
[52]
  GI50: 12.6 µM (inactive)
[21]
  GI50: 6.25 µM (inactive)
[53]
  GI50: 12.3 µM (inactive)
[22]
  GI50: 3.3 µM (inactive)
[23]
  GI50: 8.17 µM (inactive)
[24]
  GI50: 13.6 µM (inactive)
[54]
  GI50: 3.49 µM (inactive)
[25]
  GI50: 8.77 µM (inactive)
[55]
  GI50: 7.62 µM (inactive)
[26]
  GI50: 3.99 µM (inactive)
[56]
  GI50: 4.34 µM (inactive)
[27]
  GI50: 4.12 µM (inactive)
[28]
  GI50: 15.2 µM (inactive)
[57]
  GI50: 7.01 µM (inactive)
[29]
  GI50: 5.05 µM (inactive)
[30]
  GI50: 5.65 µM (inactive)
[31]
  GI50: 4.72 µM (inactive)
[32]
  GI50: 4.75 µM (inactive)
[33]
  GI50: 6.67 µM (inactive)
[34]
  GI50: 10.7 µM (inactive)
[35]
  GI50: 7.52 µM (inactive)
[36]
  GI50: 5.42 µM (inactive)
[58]
  GI50: 4.48 µM (inactive)
[37]
  GI50: 4.8 µM (inactive)
[59]
  GI50: 7.4 µM (inactive)
[60]
  GI50: 4.91 µM (inactive)
[61]
  GI50: 3.58 µM (inactive)
[38]
  GI50: 5.75 µM (inactive)
[39]
  GI50: 4.2 µM (inactive)
[40]
  GI50: 13.2 µM (inactive)
[62]
  GI50: 8.41 µM (inactive)
[41]
  GI50: 4.27 µM (inactive)
[63]
  GI50: 9.08 µM (inactive)
[64]
  GI50: 7.83 µM (inactive)
